# Key:
# MEL-28 = experiment: Inhibition of cell growth by counting cells, MEL-28; format: cell-based, human; conditions: Homo sapiens, SK-MEL-28, 72 h; three days of incubation; read-out: IC50 (molar) MEL-28
# Outline: (§1)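 Cells were seeded at 1×10^4 per well in EMEM with 5% FCS containing test sample and incubated 3 days at 37 °C, 5% CO2, in duplicate. Cells were then trypsinized and Coulter-counted, and growth was expressed relative to drug-free controls. IC50 (50% growth inhibition) was taken from dose-response curves.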
# A-549 = experiment: Inhibition of cell growth by counting cells, A-549; format: cell-based, human; conditions: Homo sapiens, A549, 72 h; three days of incubation; read-out: IC50 (molar) A-549
# Outline: as §1
# P-388 = experiment: Inhibition of cell growth by counting cells, P-388; format: cell-based, mouse; conditions: Mus musculus, P388, 72 h; three days of incubation; read-out: IC50 (molar) P-388
# Outline: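 Mouse P-388 lymphoid neoplasm suspension cells seeded at 1×10^4 cells/well in EMEM 5% FCS containing graded sample concentrations, in duplicate alongside drug-free growth controls. Cells counted by Coulter counter; % growth vs untreated gives dose-response curves, IC50 = concentration producing 50% growth inhibition.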
# HT-29 = experiment: Inhibition of cell growth by counting cells, HT-29; format: cell-based, human; conditions: Homo sapiens, HT-29, 72 h; three days of incubation; read-out: IC50 (molar) HT-29
# Outline: as §1
# DU-145 = experiment: Inhibition of cell growth by counting cells, DU-145; format: cell-based, human; conditions: Homo sapiens, DU-145, 72 h; three days of incubation; read-out: IC50 (molar) DU-145
# Outline: as §1
# Text for Heart: (§2) Toxicity was asssessed by the methods reported in Toxicology in Vitro, 15 (2001) 571-577, J. Luber Narod et al.: “Evaluation of the use of in vitro methodolodies as tools for screening new compounds for potential in vivo toxicity”.
# Text for Kidney: as §2
# Text for Liver: as §2
# Text for Myelo: as §2
# Text for Skeletal: as §2
Structure (SMILES),Toxicity Data Kidney (Kidney),IC50 (MEL-28),Toxicity Data Skeletal (Skeletal),Toxicity Data Heart (Heart),Toxicity Data Liver (Liver),IC50 (A-549),IC50 (P-388),IC50 (HT-29),Toxicity Data Myelo (Myelo),IC50 (DU-145)
COc1cc2c(cc1OC(=O)OC(C)(C)C)CCN[C@]21CS[C@@H]2c3c(OC(C)=O)c(C)c4c(c3[C@H](COC1=O)N1C2[C@H]2c3c(cc(C)c(OC)c3OC(=O)OC(C)(C)C)C[C@@H]([C@@H]1O)N2C)OCO4 (stereo partly drawn) [Compound 86],1.37E-08,0.52 nM,3.88E-08,8.16E-08,1.47E-08,0.52 nM,0.52 nM,0.52 nM,8.35E-08,0.52 nM
COc1cc2c(cc1OC(=O)C(F)(F)F)CCN[C@]21CS[C@@H]2c3c(OC(C)=O)c(C)c4c(c3[C@H](COC1=O)N1C2[C@H]2c3c(cc(C)c(OC)c3O)C[C@@H]([C@@H]1O)N2C)OCO4 (stereo partly drawn) [Compound 104],2.67E-09,0.583 nM,4.10E-07,3.44E-09,4.16E-09,0.583 nM,0.117 nM,0.583 nM,1.93E-08,0.583 nM
COc1cc2c(cc1O)CCN[C@]21CS[C@@H]2c3c(OC(=O)/C=C/c4ccccc4)c(C)c4c(c3[C@H](COC1=O)N1C2[C@H]2c3c(cc(C)c(OC)c3O)C[C@@H]([C@@H]1O)N2C)OCO4 (stereo partly drawn) [Compound 161],2.60E-09,0.118 nM,1.65E-08,1.13E-08,8.58E-09,0.118 nM,0.118 nM,0.118 nM,2.27E-08,0.118 nM
